Our source for the IC50 values is US6465509B2, “Pyrones as inhibitors of cyclooxygenase-2” (Merck Frosst Canada & Co., priority 2000, dated 2002).

For experiment [1], the target named is T1, COX-2 (Homo sapiens, UniProt P35354).
T1 sequence (P35354 18-604): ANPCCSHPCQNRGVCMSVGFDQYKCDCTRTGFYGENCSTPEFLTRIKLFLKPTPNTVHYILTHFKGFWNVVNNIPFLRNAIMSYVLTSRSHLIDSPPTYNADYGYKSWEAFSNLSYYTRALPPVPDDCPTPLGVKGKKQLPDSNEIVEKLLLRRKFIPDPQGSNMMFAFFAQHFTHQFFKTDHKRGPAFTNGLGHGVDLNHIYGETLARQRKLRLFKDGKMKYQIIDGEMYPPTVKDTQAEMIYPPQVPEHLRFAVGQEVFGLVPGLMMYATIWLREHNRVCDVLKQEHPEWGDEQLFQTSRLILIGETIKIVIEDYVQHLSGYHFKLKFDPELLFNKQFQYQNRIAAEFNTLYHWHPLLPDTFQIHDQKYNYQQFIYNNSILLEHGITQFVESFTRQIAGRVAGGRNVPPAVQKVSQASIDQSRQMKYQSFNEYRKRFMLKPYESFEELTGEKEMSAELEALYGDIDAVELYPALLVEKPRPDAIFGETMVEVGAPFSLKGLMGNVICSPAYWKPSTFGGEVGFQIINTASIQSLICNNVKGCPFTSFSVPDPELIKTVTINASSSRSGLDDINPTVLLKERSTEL
The experiment is described as follows: Human whole blood assay, COX-2 (LPS-induced PGE2 production). Type of experiment: cell-based. Also noted: endogenous in cells; host or cells: fresh heparinized human whole blood from volunteers, incubated with LPS. As to conditions: LPS-induced PGE2, 24 hours at 37° C., read-out: COX-2 (IC50 μM) HWB. Here is the method: Human whole blood provides a protein and cell-rich milieu appropriate for the study of biochemical efficacy of anti-inflammatory compounds such as selective COX-2 inhibitors. […] This is consistent with the observation that COX-2 inhibitors have no effect on PGE2 production in normal blood. These inhibitors are active only after incubation of human whole blood with LPS, which induces COX-2. This assay can be used to evaluate the inhibitory effect of selective COX-2 inhibitors on PGE2 production. As well, platelets in whole blood contain a large amount of the COX-1 enzyme. Immediately following blood clotting, platelets are activated through a thrombin-mediated mechanism. This reaction results in the production of thromboxane B2 (TxB2) via activation of COX-1. Thus, the effect of test compounds on TxB2 levels following blood clotting can be examined and used as an index for COX-1 activity. Therefore, the degree of selectivity by the test compound can be determined by measuring the levels of PGE2 after LPS induction (COX-2) and TxB2 following blood clotting (COX-1) in the same assay.
A. COX-2 (LPS-induced PGE2 production)
Fresh blood is collected in heparinized tubes by venipuncture from both male and female volunteers. The subjects have no apparent inflammatory conditions and have not taken any NSAIDs for at least 7 days prior to blood collection. Plasma is immediately obtained from a 2 mL blood aliquot to use as blank (basal levels of PGE2). The remaining blood is incubated with LPS (100 μg/ml final concentration, Sigma Chem, #L-2630 from E. coli; diluted in 0.1% BSA (Phosphate buffered saline) for 5 minutes at room temperature. Five hundred μL aliquots of blood are incubated with either 2 μL of vehicle (DMSO) or 2 μL of a test compound at final concentrations varying from 10 nM to 30 μM for 24 hours at 37° C. At the end of the incubation, the blood is centrifuged at 12,000×g for 5 minutes to obtain plasma. A 100 μL aliquot of plasma is mixed with 400 μL of methanol for protein precipitation. The supernatant is obtained and is assayed for PGE2 using a radioimmunoassay kit (Amersham, RPA#530) after conversion of PGE2 to its methyl oximate derivative according to the manufacturer's procedure.

In experiment [2] the target is T1, COX-2. Nature of the experiment: Whole cell assay for COX-2 using CHO[hCOX-2] transfected cell line. It is filed as cell-based. Also noted: expressed in transfected cells; host or cells: CHO cells stably transfected with pCDNAIII (CHO[hCOX-2]). The note with it: CHO[hCOX-2] cells, PGE2 synthesis, 10 μM AA. From the text:
Whole cell assays for COX-2 and COX-1 using CHO transfected cell lines
Chinese hamster ovary (CHO) cell lines which have been stably transfected with an eukaryotic expression vector pCDNAIII containing either the human COX-1 or COX-2 cDNA's are used for the assay. These cell lines are referred to as CHO[hCOX-1] and CHO[hCOX-2], respectively. For cyclooxygenase assays, CHO[hCOX-1] cells from suspension cultures and CHO[hCOX-2] cells prepared by trypsinization of adherent cultures are harvested by centrifugation (300×g, 10 min) and washed once in HBSS containing 15 mM HEPES, pH 7.4, and resuspended in HBSS, 15 mM HEPES, pH 7.4, at a cell concentration of 1.5×10^6 cells/ml. Drugs to be tested are dissolved in DMSO to 66.7-fold the highest test drug concentration. Compounds are typically tested at 8 concentrations in duplicate using serial 3-fold serial dilutions in DMSO of the highest drug concentration. Cells (0.3×10^6 cells in 200 μl) are preincubated with 3 μl of the test drug or DMSO vehicle for 15 min at 37° C. Working solutions of peroxide-free AA (5.5 μM and 110 μM AA for the CHO[hCOX-1] and CHO[COX-2] assays, respectively) are prepared by a 10-fold dilution of a concentrated AA solution in ethanol into HBSS containing 15 mM HEPES, pH 7.4. Cells are then challenged in the presence or absence of drug with the AA/HBSS solution to yield a final concentration of 0.5 μM AA in the CHO[hCOX-1] assay and a final concentration of 10 μM AA in the CHO[hCOX-2] assay. The reaction is terminated by the addition of 10 μl 1N HCl followed by neutralization with 20 μl of 0.5N NaOH. The samples are centrifuged at 300×g at 4° C. for 10 min, and an aliquot of the clarified supernatant is appropriately diluted for the determination of PGE2 levels using an enzyme-linked immunoassay for PGE2 (Correlate PGE2 enzyme immunoassay kit, Assay Designs, Inc.). Cyclooxygenase activity in the absence of test compounds is determined as the difference in PGE2 levels of cells challenged with arachidonic acid versus the PGE2 levels in cells mock-challenged with ethanol vehicle. Inhibition of PGE2 synthesis by test compounds is calculated as a percentage of the activity in the presence of drug versus the activity in the positive control samples.
Compounds of the present invention are inhibitors of cyclooxygenase-2 and are thereby useful in the treatment of cyclooxygenase-2 mediated diseases as enumerated above. The activities of the compounds against cyclooxygenase may be seen in the representative results shown below. In the assay, inhibition is determined by measuring the amount of prostaglandin E2 (PGE2) synthesized in the presence of arachidonic acid, cyclooxygenase-1 or cyclooxygenase-2 and a putative inhibitor. The IC50 values represent the concentration of putative inhibitor required to return PGE2 synthesis to 50% of that obtained as compared to the uninhibited control.

As usually defined, the IC50 is the concentration needed to halve the response being measured.

For `CS(=O)(=O)c1ccc(-c2cc(CC(F)(F)F)oc(=O)c2-c2ccccc2)cc1` [Example 13, 4-(4-Methylsulfonyl)phenyl-3-phenyl-6-(2,2,2-trifluoroethyl)-pyran-2-one], the IC50 stood at 10.5 µM in experiment [1] and 0.37 µM in experiment [2].
